Results from patent US9913843B2, “Protein kinase C inhibitors and uses thereof” (Rigel Pharmaceuticals, Inc., priority 2012, dated 2018).
pIC50: −log10 of the molar value. Read-outs that look alike come from different tables or passages of the source.

Test system: PKC mediated IL-2 production in human primary T cells
Assay: IL-2 ELISA, human primary T cell, anti CD3+CD28+ (whole cell functional assay for PKC mediated IL-2 production)
Assay type: cell-based
Method in brief: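 Primary human T cells (PBMC-derived, expanded on plate-bound anti-CD3/CD28 with IL-2, then IL-2-washed) were pre-incubated 1 h at 37 °C with compound, then stimulated on 1 μg/ml anti-CD3 plus 5 μg/ml anti-CD28. After 24 h at 37 °C, secreted IL-2 was measured by ELISA; counter assay used 0.5 ng/ml PMA plus 0.1 μM ionomycin (final).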

[1] = 24 h, human primary T cells stimulated with anti-CD3 + anti-CD28, IL-2 by ELISA, read-out: IC50 for blocking IL-2 production
[2] = human primary T cells stimulated with anti-CD3 + anti-CD28, 24 h, IL-2 by ELISA, 8 pt, read-out: IL2 ELISA, Human primary T cell, anti-CD3 + CD28, 8 pt (IC50)

| SMILES | pIC50 [1] | pIC50 [2] |
| --- | --- | --- |
| COc1ccc(Nc2ncc(C)c(NC[C@@H]3CCCN4CCCC[C@H]34)n2)cc1-n1nnnc1C [Compound 64, N4-(((1S,9aR)-octahydro-1H-quinolizin-1-yl)methyl)-N2-(4-methoxy-3-(5-methyl-1H-tetrazol-1-yl)phenyl)-5-methylpyrimidine-2,4-diamine] | > 4.52 | 6.34 |
| Cc1ccc(Nc2ncc(C)c(NC[C@@H]3CCCN4CCCC[C@H]34)n2)cc1C#N [Compound 67, 5-(4-(((1S,9aR)-octahydro-1H-quinolizin-1-yl)methylamino)-5-methylpyrimidin-2-ylamino)-2-methylbenzonitrile] | > 4.52 | 5.97 |
| Cc1cnc(Nc2ccc(C3CC3)c(C#N)c2)nc1NC[C@@H]1CCCN2CCCC[C@H]12 [Compound 68, 5-(4-(((1S,9aR)-octahydro-1H-quinolizin-1-yl)methylamino)-5-methylpyrimidin-2-ylamino)-2-cyclopropylbenzonitrile] | > 4.52 | 6.02 |
| Cc1cnc(Nc2ccc3oc(=O)[nH]c3c2)nc1NC[C@@H]1CCCN2CCCC[C@H]12 [Compound 71, 5-(4-(((1S,9aR)-octahydro-1H-quinolizin-1-yl)methylamino)-5-methylpyrimidin-2-ylamino)benzo[d]oxazol-2(3H)-one] | > 4.52 | 5.43 |
| COc1cnc(Nc2ccc(F)c(-n3nnnc3C)c2)nc1NC[C@@H]1CCCN2CCCC[C@H]12 [Compound 75, N2-(4-fluoro-3-(5-methyl-1H-tetrazol-1-yl)phenyl)-N4-(((1S,9aR)-octahydro-1H-quinolizin-1-yl)methyl)-5-methoxypyrimidine-2,4-diamine] | > 4.52 | 5.54 |
| COc1ccc(Nc2ncc(OC)c(NC[C@@H]3CCCN4CCCC[C@H]34)n2)cc1-n1nnnc1C [Compound 77, N4-(((1S,9aR)-octahydro-1H-quinolizin-1-yl)methyl)-5-methoxy-N2-(4-methoxy-3-(5-methyl-1H-tetrazol-1-yl)phenyl)pyrimidine-2,4-diamine] | > 4.52 | 5.62 |
| COc1cc(Nc2ncc(OC)c(NC[C@@H]3CCCN4CCCC[C@H]34)n2)cc(-n2nnnc2C)c1 [Compound 78, N4-(((1S,9aR)-octahydro-1H-quinolizin-1-yl)methyl)-5-methoxy-N2-(3-methoxy-5-(5-methyl-1H-tetrazol-1-yl)phenyl)pyrimidine-2,4-diamine] | > 4.52 | 5.65 |
| COc1cnc(Nc2cccc(C#N)c2)nc1NC[C@@H]1CCCN2CCCC[C@H]12 [Compound 79, 3-(4-(((1S,9aR)-octahydro-1H-quinolizin-1-yl)methylamino)-5-methoxypyrimidin-2-ylamino)benzonitrile] | > 4.52 | 5.27 |
| COc1cnc(Nc2ccc(C3CC3)c(C#N)c2)nc1NC[C@@H]1CCCN2CCCC[C@H]12 [Compound 81, 5-(4-(((1S,9aR)-octahydro-1H-quinolizin-1-yl)methylamino)-5-methoxypyrimidin-2-ylamino)-2-cyclopropylbenzonitrile] | > 4.52 | 5.88 |
| COc1cnc(Nc2cc(C#N)c(C3CC3)cc2F)nc1NC[C@@H]1CCCN2CCCC[C@H]12 [Compound 82, 5-(4-(((1S,9aR)-octahydro-1H-quinolizin-1-yl)methylamino)-5-methoxypyrimidin-2-ylamino)-2-cyclopropyl-4-fluorobenzonitrile] | > 4.52 | 5.88 |
| CN(C)c1cnc(Nc2cc(-n3cnnn3)c(C3CC3)cc2F)nc1NC[C@@H]1CCCN2CCCC[C@H]12 [Compound 85, N2-(4-cyclopropyl-2-fluoro-5-(1H-tetrazol-1-yl)phenyl)-N4-(((1S,9aR)-octahydro-1H-quinolizin-1-yl)methyl)-N5,N5-dimethylpyrimidine-2,4,5-triamine] | > 4.52 | 5.48 |
| Cc1ccc(Nc2ncc(N(C)C)c(NC[C@@H]3CCCN4CCCC[C@H]34)n2)cc1-n1cnnn1 [Compound 86, N4-(((1S,9aR)-octahydro-1H-quinolizin-1-yl)methyl)-N5,N5-dimethyl-N2-(4-methyl-3-(1H-tetrazol-1-yl)phenyl)pyrimidine-2,4,5-triamine] | > 4.52 | 4.96 |
| Cc1nnnn1-c1cc(Nc2ncc(N(C)C)c(NC[C@@H]3CCCN4CCCC[C@H]34)n2)ccc1F [Compound 88, N2-(4-fluoro-3-(5-methyl-1H-tetrazol-1-yl)phenyl)-N4-(((1S,9aR)-octahydro-1H-quinolizin-1-yl)methyl)-N5,N5-dimethylpyrimidine-2,4,5-triamine] | > 4.52 | 4.90 |
| COc1ccc(Nc2ncc(N(C)C)c(NC[C@@H]3CCCN4CCCC[C@H]34)n2)cc1-n1nnnc1C [Compound 90, N4-(((1S,9aR)-octahydro-1H-quinolizin-1-yl)methyl)-N2-(4-methoxy-3-(5-methyl-1H-tetrazol-1-yl)phenyl)-N5,N5-dimethylpyrimidine-2,4,5-triamine] | > 4.52 | 5.01 |

Further lines, results first:

| pIC50 [1] | pIC50 [2] | SMILES |
| --- | --- | --- |
| > 4.52 | 7.14 | COc1cc(Nc2ncc(C)c(NC[C@@H]3CCCN4CCCC[C@H]34)n2)cc(-n2nnnc2C)c1 [Compound 65, N4-(((1S,9aR)-octahydro-1H-quinolizin-1-yl)methyl)-N2-(3-methoxy-5-(5-methyl-1H-tetrazol-1-yl)phenyl)-5-methylpyrimidine-2,4-diamine] |
| > 4.52 | 5.83 | Cc1cnc(Nc2cccc(C#N)c2)nc1NC[C@@H]1CCCN2CCCC[C@H]12 [Compound 66, 3-(4-(((1S,9aR)-octahydro-1H-quinolizin-1-yl)methylamino)-5-methylpyrimidin-2-ylamino)benzonitrile] |
| > 4.52 | 6.58 | Cc1cnc(Nc2cc(C#N)c(C3CC3)cc2F)nc1NC[C@@H]1CCCN2CCCC[C@H]12 [Compound 69, 5-(4-(((1S,9aR)-octahydro-1H-quinolizin-1-yl)methylamino)-5-methylpyrimidin-2-ylamino)-2-cyclopropyl-4-fluorobenzonitrile] |
| > 4.52 | 5.82 | COc1cc(Nc2ncc(C)c(NC[C@@H]3CCCN4CCCC[C@H]34)n2)cc(OC)c1 [Compound 70, N4-(((1S,9aR)-octahydro-1H-quinolizin-1-yl)methyl)-N2-(3,5-dimethoxyphenyl)-5-methylpyrimidine-2,4-diamine] |
| > 4.52 | 5.90 | COc1cnc(Nc2cc(-n3cnnn3)c(C3CC3)cc2F)nc1NC[C@@H]1CCCN2CCCC[C@H]12 [Compound 72, N2-(4-cyclopropyl-2-fluoro-5-(1H-tetrazol-1-yl)phenyl)-N4-(((1S,9aR)-octahydro-1H-quinolizin-1-yl)methyl)-5-methoxypyrimidine-2,4-diamine] |
| > 4.52 | 5.49 | COc1cnc(Nc2ccc(C)c(-n3cnnn3)c2)nc1NC[C@@H]1CCCN2CCCC[C@H]12 [Compound 73, N4-(((1S,9aR)-octahydro-1H-quinolizin-1-yl)methyl)-5-methoxy-N2-(4-methyl-3-(1H-tetrazol-1-yl)phenyl)pyrimidine-2,4-diamine] |
| > 4.52 | 5.66 | COc1cnc(Nc2cc(-n3nnn(C)c3=O)c(C3CC3)cc2F)nc1NC[C@@H]1CCCN2CCCC[C@H]12 [Compound 74, 1-(5-(4-(((1S,9aR)-octahydro-1H-quinolizin-1-yl)methylamino)-5-methoxypyrimidin-2-ylamino)-2-cyclopropyl-4-fluorophenyl)-4-methyl-1H-tetrazol-5(4H)-one] |
| > 4.52 | 5.19 | COc1cnc(Nc2cc(-n3nnnc3C)ccc2F)nc1NC[C@@H]1CCCN2CCCC[C@H]12 [Compound 76, N2-(2-fluoro-5-(5-methyl-1H-tetrazol-1-yl)phenyl)-N4-(((1S,9aR)-octahydro-1H-quinolizin-1-yl)methyl)-5-methoxypyrimidine-2,4-diamine] |
| > 4.52 | 5.60 | COc1cnc(Nc2ccc(C)c(C#N)c2)nc1NC[C@@H]1CCCN2CCCC[C@H]12 [Compound 80, 5-(4-(((1S,9aR)-octahydro-1H-quinolizin-1-yl)methylamino)-5-methoxypyrimidin-2-ylamino)-2-methylbenzonitrile] |
| > 4.52 | 5.41 | COc1cc(Nc2ncc(OC)c(NC[C@@H]3CCCN4CCCC[C@H]34)n2)cc(OC)c1 [Compound 83, N4-(((1S,9aR)-octahydro-1H-quinolizin-1-yl)methyl)-5-methoxy-N2-(3,5-dimethoxyphenyl)pyrimidine-2,4-diamine] |
| > 4.52 | 4.81 | COc1cnc(Nc2ccc3oc(=O)[nH]c3c2)nc1NC[C@@H]1CCCN2CCCC[C@H]12 [Compound 84, 5-(4-(((1S,9aR)-octahydro-1H-quinolizin-1-yl)methylamino)-5-methoxypyrimidin-2-ylamino)benzo[d]oxazol-2(3H)-one] |
| > 4.52 | 5.08 | CN(C)c1cnc(Nc2cc(-n3nnn(C)c3=O)c(C3CC3)cc2F)nc1NC[C@@H]1CCCN2CCCC[C@H]12 [Compound 87] |
| > 4.52 | 4.84 | Cc1nnnn1-c1ccc(F)c(Nc2ncc(N(C)C)c(NC[C@@H]3CCCN4CCCC[C@H]34)n2)c1 [Compound 89, N2-(2-fluoro-5-(5-methyl-1H-tetrazol-1-yl)phenyl)-N4-(((1S,9aR)-octahydro-1H-quinolizin-1-yl)methyl)-N5,N5-dimethylpyrimidine-2,4,5-triamine] |
| > 4.52 | 5.10 | COc1cc(Nc2ncc(N(C)C)c(NC[C@@H]3CCCN4CCCC[C@H]34)n2)cc(-n2nnnc2C)c1 [Compound 91, N4-(((1S,9aR)-octahydro-1H-quinolizin-1-yl)methyl)-N2-(3-methoxy-5-(5-methyl-1H-tetrazol-1-yl)phenyl)-N5,N5-dimethylpyrimidine-2,4,5-triamine] |
